Measured values published in patent US11192852B2, “Pyrazolyl and pyrimidinyl tricyclic enones as antioxidant inflammation modulators” (REATA PHARMACEUTICALS, INC., priority 2010, dated 2021).

Tested on: IFNγ-induced NO production in RAW264.7 mouse macrophages
Test: Suppression of IFNγ-induced nitric oxide production (Griess reagent)
Format: cell-based
Details: Mus musculus, RAW264.7, RAW264.7 cells, 2 h pre-treatment (0-200 nM), then IFNγ 24 h; normalized to cell viability
Source text: Nitric Oxide Production and Cell Viability.

`Cc1nc(N2CCOCC2)c2c(n1)[C@@]1(C)C=C(C#N)C(=O)[C@@H](C)[C@@H]1CC2` [TX63758] showed an IC50 of 55 nM.

In the case of `COc1nc(OC)c2c(n1)[C@]1(C)C=C(C#N)C(=O)[C@H](C)[C@H]1CC2` [TX63794], the IC50 is reported as 88.5 nM.

In the case of `CC1(C)C(=O)C(C#N)=C[C@]2(C)c3nc(C(F)(F)F)ncc3CC[C@@H]12` [TX63567], the IC50 is reported as 43 nM.

Compound `COc1cccc(-c2c3c(nn2C)[C@@]2(C)C=C(C#N)C(=O)[C@@H](C)[C@@H]2CC3)c1` [TX63664] has an IC50 of 8 nM.

For `C[C@@H]1C(=O)C(C#N)=C[C@]2(C)c3nn(C)cc3C[C@@H]12` [TX63533], the IC50 was > 200 nM.

Work on `Cc1nc(-c2ncc3c(n2)[C@@]2(C)C=C(C#N)C(=O)C(C)(C)[C@@H]2CC3)cs1` [TX63628] yielded an IC50 of 62 nM.

In the case of `CC1(C)C(=O)C(C#N)=C[C@]2(C)c3ncncc3CC[C@@H]12` [TX63542], the IC50 is reported as 55 nM.

In the case of `Cn1cc2c(n1)[C@@]1(C)C=C(C#N)C(=O)C(C)(C)[C@@H]1C2` [TX63559], the IC50 is reported as > 200 nM.

Compound `CC1(C)C(=O)C(C#N)=C[C@]2(C)c3nn(-c4[nH]nc5c4CC[C@H]4C(C)(C)C(=O)C(C#N)=C[C@]54C)cc3CC[C@H]12` [TX63466] has an IC50 of 10.4 nM.

Compound `Cn1nc2c(c1C(=O)c1ccccc1)CC[C@H]1C(C)(C)C(=O)C(C#N)=C[C@]21C` [TX63667] has an IC50 of 155 nM.

`COc1ccc(-c2ncc3c(n2)[C@@]2(C)C=C(C#N)C(=O)C(C)(C)[C@@H]2CC3)cc1` [TX63590] was tested, and the IC50 was 31 nM.

In the case of `COc1c2c(nn1C)[C@@]1(C)C=C(C#N)C(=O)C(C)(C)[C@@H]1CC2` [TX63691], the IC50 is reported as 62 nM.

Work on `Cc1nc(-c2c3c(nn2C)[C@@]2(C)C=C(C#N)C(=O)C(C)(C)[C@@H]2CC3)no1` [TX63723] yielded an IC50 of 35 nM.

`Cc1nc(N(C)C)c2c(n1)[C@@]1(C)C=C(C#N)C(=O)[C@@H](C)[C@@H]1CC2` [TX63774] gave an IC50 of 26.7 nM.

With `COCO[C@H]1CCC[C@H]2C(C)(C)C(=O)C(C#N)=C[C@]12C` [TX63364] the IC50 was > 200 nM.

With `C[C@@H]1C(=O)C(C#N)=C[C@]2(C)c3nn(C)c(-c4cccnc4)c3CC[C@@H]12` [TX63722] the IC50 was 8.3 nM.

Compound `Cc1nnc(-c2c3c(nn2C)[C@@]2(C)C=C(C#N)C(=O)C(C)(C)[C@@H]2CC3)o1` [TX63735] has an IC50 of 15.6 nM.

With `Cn1cnc(-c2c3c(nn2C)[C@@]2(C)C=C(C#N)C(=O)C(C)(C)[C@@H]2CC3)n1` [TX63714] the IC50 was > 200 nM.

Work on `CC1(C)C(=O)C(C#N)=C[C@]2(C)c3nn(-c4ccccc4)c(-c4ccccc4)c3CC[C@@H]12` [TX63544] yielded an IC50 of 39 nM.

In the case of `Cn1ncc2c1[C@@]1(C)C=C(C#N)C(=O)C(C)(C)[C@@H]1CC2` [TX63342], the IC50 is reported as 180 nM.

Work on `CCOc1nc(C)nc2c1CC[C@H]1[C@H](C)C(=O)C(C#N)=C[C@]21C` [TX63773] yielded an IC50 of 6 nM.

Work on `Cn1nc2c(c1-c1ccccc1)CC[C@H]1C3(CCCC3)C(=O)C(C#N)=C[C@]21C` [TX63504] yielded an IC50 of 20 nM.

`CCOc1nc(OCC)c2c(n1)[C@@]1(C)C=C(C#N)C(=O)[C@@H](C)[C@@H]1CC2` [TX63736] showed an IC50 of 9.8 nM.

With `Cc1ccc(-c2c3c(nn2C)[C@@]2(C)C=C(C#N)C(=O)C(C)(C)[C@@H]2CC3)cc1` [TX63514] the IC50 was 37 nM.

With `CCCCNc1nc(C)nc2c1CC[C@H]1[C@H](C)C(=O)C(C#N)=C[C@]21C` [TX63827] the IC50 was 59 nM.

`Cn1nc2c(c1-c1ccc(F)cc1)CC[C@H]1C(C)(C)C(=O)C(C#N)=C[C@]21C` [TX63507] showed an IC50 of 39 nM.

Compound `COc1ccccc1-c1c2c(nn1C)[C@@]1(C)C=C(C#N)C(=O)C(C)(C)[C@@H]1CC2` [TX63509] has an IC50 of 38 nM.

`CC1(C)C(=O)C(C#N)=C[C@]2(C)c3c(cnc4c(Br)cnn34)CC[C@@H]12` [TX63615] gave an IC50 of 52 nM.

With `Cn1nc2c(c1NC(=O)OC(C)(C)C)CC[C@H]1C(C)(C)C(=O)C(C#N)=C[C@]21C` [TX63594] the IC50 was > 200 nM.

In the case of `Cn1nc2c(c1C#N)CC[C@H]1C(C)(C)C(=O)C(C#N)=C[C@]21C` [TX63613], the IC50 is reported as 101 nM.

With `CC1(C)C(=O)C(C#N)=C[C@]2(C)c3[nH]ncc3CC[C@@H]12` [TX63467] the IC50 was > 200 nM.

Work on `COc1nc(C)nc2c1CC[C@H]1C(C)(C)C(=O)C(C#N)=C[C@]21C` [TX63595] yielded an IC50 of 20 nM.
